Experimental findings from patent US20150329821A1, “METHODS OF DIFFERENTIATING STEM CELLS INTO ONE OR MORE CELL LINEAGES” (AGENCY FOR SCIENCE, TECHNOLOGY AND RESEARCH, priority 2012, published 2015) are described below.

In this test the test system is hESC. Nature of the test: qPCR of DE vs. mesoderm emergence from primitive streak under signaling perturbations. Type of test: cell-based, human. The conditions noted are these: for downregulation of MESP1: neutralizing endogenous BMP on days 2-3, PS to DE, 2 hESC lines; for mesoderm formation from PS: inhibiting endogenous Wnt on days 2-3. The method, then:
RNA was harvested from adherent cells grown in individual wells of a 12-well plate by the addition of 350 μL of RLT Buffer for several minutes. RNA could be indefinitely frozen at −80° C. or could be directly extracted. RNA extraction was conducted with the RNeasy Micro Kit (Qiagen) generally as per the manufacturer's recommendations with an intermediate 1 hour on-column DNase digestion to eliminate residual genomic DNA, and RNA was finally eluted from the column in 30 μL H20. After assessment of total RNA concentration, generally 100-500 ng of total RNA was used for reverse transcription (Superscript Reverse Transcriptase, Invitrogen) as per the manufacturer's instructions. Finally, cDNA was diluted 1:30 in H2O and was used for qPCR in 384-well high-throughput format. For each individual qPCR reaction per′ well (10 μL), 5 μL of 2×SYBR Green Master Mix (Applied Biosystems) was used and combined with 0.4 μL of combined forward and reverse primer mix (at 10 μM of forward+reverse primers in the combined primer mix). qPCR was conducted for 40 cycles at Tm=60° C., and a dissociation curve was generated at the end of the reaction to ensure only one product was specifically amplified per primer pair. qPCR analysis was conducted by the ddCt method: for each cDNA sample, the expression of experimental genes was internally normalized to the expression of a human housekeeping gene (Pbgd) for that same cDNA sample, and afterwards, expression of experimental genes could be determined between different cDNA samples. For all differentiated populations, expression of experimental genes was compared to undifferentiated hESCs plated for the same experimental set to ensure that any perceived increase or decrease of gene expression was significant relative to the ab initio expression of that gene in undifferentiated hESCs. Thus, for all qPCR data both in matrices […] and histograms (FIG. 39-65) all gene expression is normalized such that the level of gene expression (e.g., for SOX17) in hESCs=1. For each experiment, at least two distinct wells per, condition were harvested, and for each well, 2 or 3 technical replicates were performed for each gene whose expression was analyzed by qPCR.
To deduce the developmental signaling logic underlying cell-fate bifurcations, signaling-perturbation matrices (FIG. 1-23) were generated to visually represent qPCR data of developmental gene expression (rows) in response to various signaling-perturbations (columns). Signaling-perturbation matrices were generated using GenePattern's HeatMapViewer module (http://genepattern.broadinstitute.org), using as input data matrices of signaling-perturbation qPCR responses that were normalized to levels of developmental gene expression in undifferentiated hESC as described above. In HeatMapViewer, gene expression values are linearly transformed into colors (as indicated by the color legend below each matrix) in which no color represents low gene expression, stronger color represents higher gene expression and the strongest shade of color is equivalent to the highest level of the gene that was expressed in all signaling-perturbations tested in that matrix.
(Quantitative PCR measures a nucleic acid by following its amplification.)

Turning to `Cl.c1ccc2c(-c3cnn4cc(-c5ccc(N6CCNCC6)cc5)cnc34)ccnc2c1` [DM3189/LDN-193189, 4-(6-(4-(piperazin-1-yl)phenyl)pyrazolo[1,5-a]pyrimidin-3-yl)quinoline hydrochloride], the “downregulation of MESP1” value was ~3000 fold.
In the case of `Cc1ccc2nc(NC(=O)CSc3nc4c(c(=O)n3-c3ccccc3)SCC4)sc2c1` [IWP2, N-(6-Methyl-2-benzothiazolyl)-2-[(3,4,6,7-tetrahydro-4-oxo-3-phenylthieno[3,2-d]pyrimidin-2-yl)thio]-acetamide], the “mesoderm formation from PS” value is “blocked mesoderm formation”.
The same measure, in the same setting: under `O=c1[nH]c(-c2ccc(C(F)(F)F)cc2)nc2c1CSCC2` [XAV939, 3,5,7,8-Tetrahydro-2-[4-(trifluoromethyl)phenyl]-4H-thiopyrano[4,3-d]pyrimidin-4-one] stands “blocked mesoderm formation”.

B1: Dkk1: inhibitor of Wnt signaling (protein, UniProt O94907 32-266, looked up)
Dickkopf-related protein 1: TLNSVLNSNAIKNLPPPLGGAAGHPGSAVSAAPGILYPGGNKYQTIDNYQPYPCAEDEECGTDEYCASPTRGGDAGVQICLACRKRRKRCMRHAMCCPGNYCKNGICVSSDQNHFRGEIEETITESFGNDHSTLDGYSRRTTLSSKMYHTKGQEGSVCLRSSDCASGLCCARHFWSKICKPVLKEGQVCTKHRRKGSHGLEIFQRCYCGEGLSCRIQKDHHQASNSSRLHTCQRH
On to B1, for which the “mesoderm formation from PS” value is on record as “blocked mesoderm formation”.

B2: noggin: inhibitor of BMP signaling (protein, UniProt Q13253 28-232, looked up)
Noggin: QHYLHIRPAPSDNLPLVDLIEHPDPIFDPKEKDLNETLLRSLLGGHYDPGFMATSPPEDRPGGGGGAAGGAEDLAELDQLLRQRPSGAMPSEIKGLEFSEGLAQGKKQRLSKKLRRKLQMWLWSQTFCPVLYAWNDLGSRFWPRYVKVGSCFSKRSCSVPEGMVCKPSKSVHLTVLRWRCQRRGGQRCGWIPIQYPIISECKCSC
For B2, the “downregulation of MESP1” value is on record as ~3000 fold.
